“And” between values parts separate entries of the source, which are not always exact repeats. Equal values may be shown once. Toxic doses and inconclusive results are not listed.
Test system: BDF1 mice, P388 leukemia ip, median survival T/C
Assay: NCI In Vivo Anticancer Drug Screen. Data for tumor model P388 Leukemia (intraperitoneal) in B6D2F1 (BDF1) mice
Conditions: endpoint: median survival time, higher = longer survival
In short: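 Steps: implant the tumour, treat one group with compound and another with vehicle, record survival, then divide treated by control.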

[1] = dose: 100.0 mg/kg/injection, schedule: Q04DX003 (ip), vehicle: saline with Tween-80

`COc1ccc(-c2c3c(cc4cc5c(cc24)OCO5)C(=O)OC3)cc1OC` was tested. Which T/C (dose: 0.25 mg/kg/injection, schedule: Q01DX009 (ip), vehicle: saline + alcohol) did it give?
The T/C was 95 % of control.

And the T/C (dose: 0.5 mg/kg/injection, schedule: Q01DX009 (ip), vehicle: saline + alcohol)?
The T/C was 88 % of control.

And the T/C (dose: 1.0 mg/kg/injection, schedule: Q01DX009 (ip), vehicle: saline + alcohol)?
Its T/C is 95 % of control.

What about the T/C (dose: 1.5 mg/kg/injection, schedule: Q01DX009 (ip), vehicle: saline + alcohol) of the same molecule?
The T/C was 104 % of control.

What about the T/C (dose: 2.0 mg/kg/injection, schedule: Q01DX009 (ip), vehicle: saline + alcohol) of the same molecule?
Its T/C is 88 % of control.

What about the T/C (dose: 3.0 mg/kg/injection, schedule: Q01DX009 (ip), vehicle: saline + alcohol) of the same molecule?
The T/C was 93 % of control.

And the T/C (dose: 4.0 mg/kg/injection, schedule: Q01DX009 (ip), vehicle: saline + alcohol)?
Its T/C is 95 % of control.

And the T/C (dose: 6.0 mg/kg/injection, schedule: Q01DX009 (ip), vehicle: saline + alcohol)?
Its T/C is 111 % of control.

What about the T/C (dose: 8.0 mg/kg/injection, schedule: Q01DX009 (ip), vehicle: saline + alcohol) of the same molecule?
The T/C was 104 % of control.

What about the T/C (dose: 12.0 mg/kg/injection, schedule: Q01DX009 (ip), vehicle: saline + alcohol) of the same molecule?
Its T/C is 101 % of control.

And the T/C (dose: 24.0 mg/kg/injection, schedule: Q01DX009 (ip), vehicle: saline + alcohol)?
The T/C was 93 % of control.

What about the T/C (dose: 25.0 mg/kg/injection, schedule: Q01DX009 (ip), vehicle: saline + alcohol) of the same molecule?
The T/C was 94 % of control.

What about the T/C (dose: 50.0 mg/kg/injection, schedule: Q01DX009 (ip), vehicle: saline + alcohol) of the same molecule?
The T/C was 94 % of control.

And the T/C (dose: 100.0 mg/kg/injection, schedule: Q01DX009 (ip), vehicle: saline + alcohol)?
Its T/C is 97 % of control.

And the T/C (dose: 200.0 mg/kg/injection, schedule: Q01DX009 (ip), vehicle: saline + alcohol)?
The T/C was 86 % of control.

Which T/C (dose: 100.0 mg/kg/injection, schedule: Q01DX009 (ip), vehicle: saline) does the source give for `O=C(Nc1ccc([N+](=O)[O-])cc1)Nc1ccc([N+](=O)[O-])cc1` (tested in a mixture with another compound) here?
Its T/C is 109 % of control.

And the T/C (dose: 100.0 mg/kg/injection, schedule: Q04DX003 (ip), vehicle: saline)?
The T/C was 112 % of control and 104 % of control.

And the T/C (dose: 200.0 mg/kg/injection, schedule: Q01DX009 (ip), vehicle: saline)?
The T/C was 122 % of control.

And the T/C (dose: 200.0 mg/kg/injection, schedule: Q04DX003 (ip), vehicle: saline)?
Its T/C is 100 % of control and 91 % of control.

What about the T/C (dose: 400.0 mg/kg/injection, schedule: Q01DX009 (ip), vehicle: saline) of the same molecule?
The T/C was 118 % of control.

What about the T/C (dose: 400.0 mg/kg/injection, schedule: Q04DX003 (ip), vehicle: saline) of the same molecule?
Its T/C is 112 % of control and 100 % of control.

Which results are given for `O=[N+]([O-])c1cccc(OCCOc2ccc(S(=O)(=O)F)cc2)c1`?
T/C [1]: 100 % of control; T/C (dose: 400.0 mg/kg/injection, schedule: Q04DX003 (ip), vehicle: saline with Tween-80): 100 % of control

Which results are given for `Nc1cc(C(=O)Nc2ccc(C3=NCCN3)cc2)ccc1C(=O)Nc1ccc(C2=NCCN2)cc1`?
T/C (dose: 1.4 mg/kg/injection, schedule: Q01DX009 (ip), vehicle: saline with Tween-80): 158 % of control; T/C (dose: 2.2 mg/kg/injection, schedule: Q01DX009 (ip), vehicle: saline with Tween-80): 154 % of control; T/C (dose: 3.3 mg/kg/injection, schedule: Q01DX009 (ip), vehicle: saline with Tween-80): 154 % of control and 200 % of control; T/C (dose: 5.0 mg/kg/injection, schedule: Q01DX009 (ip), vehicle: saline with Tween-80): 191 % of control; T/C (dose: 8.0 mg/kg/injection, schedule: Q01DX009 (ip), vehicle: saline with Tween-80): 230 % of control; T/C (dose: 12.0 mg/kg/injection, schedule: Q01DX009 (ip), vehicle: saline with Tween-80): 230 % of control; T/C (dose: 12.5 mg/kg/injection, schedule: Q01DX009 (ip), vehicle: saline with Tween-80): 230 % of control; T/C (dose: 13.0 mg/kg/injection, schedule: Q04DX003 (ip), vehicle: saline with Tween-80): 170 % of control; T/C (dose: 20.0 mg/kg/injection, schedule: Q04DX003 (ip), vehicle: saline with Tween-80): 208 % of control; T/C (dose: 25.0 mg/kg/injection, schedule: Q01DX009 (ip), vehicle: saline with Tween-80): 230 % of control; T/C (dose: 30.0 mg/kg/injection, schedule: Q04DX003 (ip), vehicle: saline with Tween-80): 250 % of control and 181 % of control; T/C (dose: 44.0 mg/kg/injection, schedule: Q04DX003 (ip), vehicle: saline with Tween-80): 272 % of control; T/C (dose: 50.0 mg/kg/injection, schedule: Q01DX009 (ip), vehicle: saline with Tween-80): 92 % of control; T/C (dose: 66.0 mg/kg/injection, schedule: Q04DX003 (ip), vehicle: saline with Tween-80): 229 % of control and 272 % of control; T/C [1]: 166 % of control and 204 % of control; T/C (dose: 150.0 mg/kg/injection, schedule: Q04DX003 (ip), vehicle: saline with Tween-80): 100 % of control; T/C (dose: 200.0 mg/kg/injection, schedule: Q04DX003 (ip), vehicle: saline with Tween-80): 100 % of control

With `O=[N+]([O-])c1cccnc1Oc1cccc(C(F)(F)F)c1` as the molecule, how does the T/C (dose: 50.0 mg/kg/injection, schedule: Q01DX001 (ip), vehicle: other) read?
Its T/C is 100 % of control.

What about the T/C (dose: 100.0 mg/kg/injection, schedule: Q01DX001 (ip), vehicle: other) of the same molecule?
Its T/C is 95 % of control.

And the T/C (dose: 200.0 mg/kg/injection, schedule: Q01DX001 (ip), vehicle: other)?
The T/C was 86 % of control.

And the T/C (dose: 400.0 mg/kg/injection, schedule: Q01DX001 (ip), vehicle: other)?
Its T/C is 95 % of control.
